Laboratory results reported in BindingDB's records for doi:10.1124/jpet.103.049395 (Lcg Bioscience, 2003).
Where a SMILES comes first, the peptide text is derived from it. Bridges are numbered along the chain shown (N, C = ends). [ ]: non-standard residue; d: D form. Orn = NCCC[C@H](N)C(=O)O; Mpa = O=C(O)CCS

What was measured:
Vasopressin V1a receptor = Vasopressin V1a receptor (Homo sapiens, UniProt P37288)
Vasopressin V1b receptor = target: T1, Vasopressin V1b receptor (Homo sapiens, UniProt P47901)
T1 sequence (P47901 whole entry): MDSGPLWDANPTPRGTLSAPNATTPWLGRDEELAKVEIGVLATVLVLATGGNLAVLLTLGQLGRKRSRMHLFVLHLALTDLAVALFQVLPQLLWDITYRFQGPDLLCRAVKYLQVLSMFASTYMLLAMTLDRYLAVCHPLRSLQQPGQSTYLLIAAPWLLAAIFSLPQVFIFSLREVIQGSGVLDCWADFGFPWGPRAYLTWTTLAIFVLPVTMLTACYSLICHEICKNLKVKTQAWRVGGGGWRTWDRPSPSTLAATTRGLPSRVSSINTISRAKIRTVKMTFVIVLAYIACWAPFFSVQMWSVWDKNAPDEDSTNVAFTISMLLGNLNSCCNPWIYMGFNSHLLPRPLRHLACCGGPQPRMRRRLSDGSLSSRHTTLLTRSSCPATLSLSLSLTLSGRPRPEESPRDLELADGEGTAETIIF

Oxytocin receptor [1] = target: T2, Oxytocin receptor (Homo sapiens, UniProt P30559)
T2 sequence (P30559 whole entry): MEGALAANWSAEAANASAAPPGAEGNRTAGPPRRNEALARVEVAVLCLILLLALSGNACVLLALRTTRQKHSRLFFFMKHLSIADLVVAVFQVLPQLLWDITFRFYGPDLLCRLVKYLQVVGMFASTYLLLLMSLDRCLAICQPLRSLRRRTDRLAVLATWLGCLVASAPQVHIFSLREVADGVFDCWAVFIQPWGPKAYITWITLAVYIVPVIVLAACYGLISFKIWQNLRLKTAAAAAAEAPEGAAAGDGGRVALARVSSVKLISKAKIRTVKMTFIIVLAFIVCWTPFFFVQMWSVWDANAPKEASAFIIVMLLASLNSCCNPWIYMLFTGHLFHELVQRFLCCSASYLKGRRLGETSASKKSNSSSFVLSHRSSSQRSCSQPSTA

Oxytocin receptor [2] = target: T3, Oxytocin receptor (Rattus norvegicus, UniProt P70536)
T3 sequence (P70536 whole entry): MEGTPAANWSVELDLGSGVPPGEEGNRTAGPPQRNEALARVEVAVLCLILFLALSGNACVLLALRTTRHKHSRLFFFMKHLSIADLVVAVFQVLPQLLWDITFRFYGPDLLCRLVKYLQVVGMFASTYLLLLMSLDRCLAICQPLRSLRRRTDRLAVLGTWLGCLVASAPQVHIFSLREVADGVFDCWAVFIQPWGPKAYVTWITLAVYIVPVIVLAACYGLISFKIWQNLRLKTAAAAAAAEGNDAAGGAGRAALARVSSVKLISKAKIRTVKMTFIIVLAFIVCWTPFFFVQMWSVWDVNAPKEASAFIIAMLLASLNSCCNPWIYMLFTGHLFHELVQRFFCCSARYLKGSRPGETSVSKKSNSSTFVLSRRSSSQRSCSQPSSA

Vasopressin V2 receptor = Vasopressin V2 receptor (Homo sapiens, UniProt P30518)
Chain of Vasopressin V2 receptor (P30518 whole entry): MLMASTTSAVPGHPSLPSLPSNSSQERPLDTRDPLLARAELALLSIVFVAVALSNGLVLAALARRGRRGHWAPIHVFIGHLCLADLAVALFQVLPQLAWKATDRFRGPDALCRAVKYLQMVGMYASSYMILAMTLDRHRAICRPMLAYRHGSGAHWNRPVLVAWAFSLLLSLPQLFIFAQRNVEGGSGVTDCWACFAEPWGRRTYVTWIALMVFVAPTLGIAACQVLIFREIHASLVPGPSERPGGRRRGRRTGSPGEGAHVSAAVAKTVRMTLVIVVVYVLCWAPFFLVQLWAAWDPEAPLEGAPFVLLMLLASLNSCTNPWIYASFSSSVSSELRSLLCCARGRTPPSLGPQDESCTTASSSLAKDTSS

Chain of Vasopressin V1a receptor (P37288 whole entry): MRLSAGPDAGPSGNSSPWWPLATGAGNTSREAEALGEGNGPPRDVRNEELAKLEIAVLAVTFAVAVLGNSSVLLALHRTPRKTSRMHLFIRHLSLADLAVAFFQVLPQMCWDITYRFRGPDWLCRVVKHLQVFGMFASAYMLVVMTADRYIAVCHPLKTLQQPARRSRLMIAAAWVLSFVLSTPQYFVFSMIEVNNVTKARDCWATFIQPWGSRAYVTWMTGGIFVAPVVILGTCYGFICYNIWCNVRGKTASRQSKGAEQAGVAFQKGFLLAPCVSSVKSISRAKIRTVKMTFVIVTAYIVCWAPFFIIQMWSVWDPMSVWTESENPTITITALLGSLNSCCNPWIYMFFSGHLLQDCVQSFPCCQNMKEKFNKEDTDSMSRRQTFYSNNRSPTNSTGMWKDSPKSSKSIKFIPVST

Row | SMILES | Ki (Vasopressin V1a receptor) [nM] | Ki (Vasopressin V1b receptor) [nM] | Ki (Oxytocin receptor [1]) [nM] | Ki (Oxytocin receptor [2]) [nM] | Ki (Vasopressin V2 receptor) [nM]
1 | CO/N=C1/C[C@@H](C(=O)NC[C@@H](O)c2ccccc2)N(C(=O)c2ccc(-c3ccccc3C)cc2)C1 [(2S,4Z)-N-[(2S)-2-hydroxy-2-phenylethyl]-4-(methoxyimino)-1-[(2'-methyl[1,1'-biphenyl]-4-yl)carbonyl]-2-pyrrolidinecarboxamide] | 170 | > 10000 | 17 | 135 | > 10000
2 | CCOc1ccc(C[C@H]2NC(=O)CCSSC[C@@H](C(=O)N3CCC[C@H]3C(=O)N[C@@H](CCCN)C(=O)NCC(N)=O)NC(=O)[C@H](CC(N)=O)NC(=O)[C@H]([C@@H](C)O)NC(=O)[C@H]([C@@H](C)CC)NC2=O)cc1 [CAS_90779-69-4] ([Mpa][dY](Et)ITNCP[Orn]G-NH2; disulfide 1-6) | 3.5 | 657 | 81 | – | 954
